Data: publication PMC9604388, “Purification and Functional Characterization of a Soluble Trehalase in Lissorhoptrus oryzophilus (Coleoptera: Curculionidae)” (Insects, 2022)

Tested on: T1, LoTRE1
T1 construct: whole coding region incl. predicted signal peptide (1-25) by primers (ORF 1839 bp, 612 aa, 70833 Da); E. coli Rosetta (DE3), Ni-NTA; ~70 kDa
Assay: […],5-dinitrosalicylic acid assay of released glucose
Assay type: biochemical, Lissorhoptrus oryzophilus
Details: PBS, pH 7.0, 50 °C, 30 min; substrate 1-10 mmol/L (Km above tested range)

Km: 48.6 mM
SMILES: OC[C@H]1O[C@H](O[C@H]2O[C@H](CO)[C@@H](O)[C@H](O)[C@H]2O)[C@H](O)[C@@H](O)[C@@H]1O [trehalose]
